Source: US20210322469A1, “ZINC AND COPPER FOR THE PROPHYLAXIS AND TREATMENT OF COVID-19” (Regents of the University of Minnesota, priority 2020, published 2021)
Read-outs that look alike come from different tables or passages of the source.

Tests used:
[1] = molecular target: angiotensin converting enzyme 2 (ACE2) (Homo sapiens, UniProt Q9BYF1); details: Speth et al. 2014, cited from earlier work
SARS-CoV-2 = format: in vivo; details: patients receiving zinc prophylactically for AMD or for treatment of AMD

Sequence of angiotensin converting enzyme 2 (ACE2) (Q9BYF1 18-805): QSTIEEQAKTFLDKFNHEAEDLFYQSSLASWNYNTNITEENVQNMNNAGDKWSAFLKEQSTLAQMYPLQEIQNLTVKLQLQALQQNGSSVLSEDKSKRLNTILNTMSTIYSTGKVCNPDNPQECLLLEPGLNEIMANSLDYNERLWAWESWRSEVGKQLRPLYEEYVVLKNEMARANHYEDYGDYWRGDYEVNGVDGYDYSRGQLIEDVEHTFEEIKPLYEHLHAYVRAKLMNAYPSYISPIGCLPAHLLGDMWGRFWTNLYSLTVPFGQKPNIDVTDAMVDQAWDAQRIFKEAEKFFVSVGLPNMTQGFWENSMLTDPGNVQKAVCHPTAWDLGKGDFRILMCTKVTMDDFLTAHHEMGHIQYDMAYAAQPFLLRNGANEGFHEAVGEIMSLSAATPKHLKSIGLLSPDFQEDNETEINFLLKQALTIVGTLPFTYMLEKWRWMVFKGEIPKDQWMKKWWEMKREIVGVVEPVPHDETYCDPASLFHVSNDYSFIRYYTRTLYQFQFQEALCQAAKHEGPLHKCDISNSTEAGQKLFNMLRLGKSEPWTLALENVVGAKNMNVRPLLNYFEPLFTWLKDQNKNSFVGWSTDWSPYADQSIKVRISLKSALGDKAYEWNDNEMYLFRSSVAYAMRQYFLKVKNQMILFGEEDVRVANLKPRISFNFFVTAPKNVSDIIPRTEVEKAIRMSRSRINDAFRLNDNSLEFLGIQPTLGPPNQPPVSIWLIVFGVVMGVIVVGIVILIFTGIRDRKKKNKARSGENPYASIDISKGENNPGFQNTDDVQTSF

For zinc, the “inhibition of ACE2 function” value [1] is listed as “inhibitor of ACE2 function”, the “inhibition of ACE2 function” value ([1]; listed as Zinc) is listed as “can inhibit the function of ACE2” and the COVID-19-related deaths (SARS-CoV-2) is listed as “no COVID-19-related deaths”.
